Tests used:
[1] = tested on: HMEC, human mammary gland epithelial cells; conditions: 72 hours
Experimental: (§1) MCF-7 human breast adenocarcinoma cells (ATCC) are maintained in Eagle's Minimal Essential Medium supplemented with 10% FBS (Gibco-BRL), 1% Penicillin-Streptomycin-Glutamine and 10 nM 17β Estradiol, (Sigma). MCF-10A cells, human fibrocystic mammary gland epithelial cells (ATCC) and HMEC, human mammary gland epithelial cells (Cambrex) are maintained in mammary epithelial complete growth medium (MEGM) containing the Bullet Kit (Cambrex Bio Sciences).
Cells are seeded on 24-well plates at 20-25×10^3 cells/well in 0.4-0.5 ml of their respective media. […] Cells with no treatment are the controls. Plates are incubated at 37° C. for 72 hours. Cell proliferation is measured using ViaLight Plus Cell Proliferation and Cytotoxicity BioAssay Kit by quantifying the amount of ATP released from the cells according to manufacture's protocol. […]
The luminometer and associated WinGlow software program are set up and primed with reconstituted AMR. […] The luminometer is programmed to take one second integrated reading of each appropriate well. The plates are incubated for 2 minutes at room temperature in the luminometer and one second integrated reading of each appropriate well is initiated.
Average RLU (relative luciferase unit) values for each set of triplicate wells, using Winglow software and Microsoft Excel, is calculated and graphed. […]

MCF7 cells = conditions: MCF7, GLA 0, 50, 100 μM, 48 hours
Experimental: (§2) Cells are grown in T75 flasks up to 70-80% confluence before being treated with desired fatty acids conjugated with BSA for 48 hours at 37° C. at various concentrations (0, 50, 100 μM). After incubation, the cells are trypsinized from the flask and the cell suspensions are pooled and collected in 50 ml tubes. Each cell type and each treatment is done in duplicate. Cell suspensions are then centrifuged at 1000 rpm for 10 minutes each. Supernatants are discarded and the pellets suspended in phosphate buffered saline. The cells are washed twice with 10 ml of PBS (Phosphate buffer saline) at each step and centrifuged. The pellets are re-suspended in 10 ml of PBS and counted and the cell numbers are normalized for the experiment. The cell suspension is centrifuged again and the pellets stored at −80° C. until lipid extraction is performed.
(§3) Briefly, each cell pellet from a 50 ml culture is vortexed with 6 ml of methanol, followed by the addition of 12 ml of chloroform and 100 μg of tridecanoin (as internal standard). The mixture is incubated at 4° C. overnight. The chloroform layer is extracted and filtered through a Whatman filter with one gram of anhydrous sodium sulfate to remove particulates and residual water. Organic solvents are evaporated to dryness at 40° C. under a stream of nitrogen. […]

[2] = tested on: MCF-10A cells, human fibrocystic mammary gland epithelial cells; assay: Cell proliferation assay (ViaLight Plus, ATP); type: cell-based; conditions: MCF10A, 72 hours
Experimental: Cells with no treatment are the controls. Plates are incubated at 37° C. for 72 hours.

[3] = tested on: MCF-7 human breast adenocarcinoma cells; assay: Cell proliferation assay (ViaLight Plus, ATP); type: cell-based; conditions: MCF7, 72 hours
Experimental: as §1
Cells are seeded on 24-well plates at 20-25×10^3 cells/well in 0.4-0.5 ml of their respective media. […] Cells with no treatment are the controls. Plates are incubated at 37° C. for 72 hours. Cell proliferation is measured using ViaLight Plus Cell Proliferation and Cytotoxicity BioAssay Kit by quantifying the amount of ATP released from the cells according to manufacture's protocol.
Cell culture plates are warmed up to room temperature for 5 minutes and 200 μl of cell lysis reagent is added to each well. After incubation at room temperature for 10 minutes with intermediate swirling of the plate, 100 μl of the sample from each well is loaded in triplicate in a white 96-well microtiter plate, Dynex Microlite 1+, for vialight assay. The ATP monitoring reagent (AMR) is reconstituted in assay buffer and allowed to equilibrate for 15 minutes at room temperature.
The luminometer and associated WinGlow software program are set up and primed with reconstituted AMR. The plate is placed in the luminometer and 100 μl of reconstituted AMR is dispensed per well. The luminometer is programmed to take one second integrated reading of each appropriate well. The plates are incubated for 2 minutes at room temperature in the luminometer and one second integrated reading of each appropriate well is initiated.
Average RLU (relative luciferase unit) values for each set of triplicate wells, using Winglow software and Microsoft Excel, is calculated and graphed. Effects of various treatments are calculated by plotting the percent of inhibition of cell proliferation versus the concentration of treatment. Percent inhibition of cell proliferation is calculated using the formula: […]

MCF10A cells = conditions: GLA 0, 50, 100 μM, 48 hours
Experimental: as §2, §3

thyroid follicular cells = conditions: well known; cited from earlier work

| SMILES | anti-proliferative activity on normal breast cells [1] | production of arachidonic acid (MCF7 cells) | anti-proliferative activity on fibrocystic cells [2] | anti-proliferative activity on breast cancer cells [3] | production of arachidonic acid (MCF10A cells) | proliferation of thyroid follicular cells (thyroid follicular cells) |
| --- | --- | --- | --- | --- | --- | --- |
| CCCCC/C=C\C/C=C\C/C=C\CCCCC(=O)O [GLA, (Z,Z,Z)-6,9,12-octadecatrienoic acid] | no effect | increased production of arachidonic acid | significant anti-proliferative activity | no effect | increased production of arachidonic acid |  |
| [I-].[K+] [Iodine, potassium iodide] |  |  | does not show any anti-proliferative effect | does not show any anti-proliferative effect |  | inhibits proliferation |
| O=[Se](=O)([O-])[O-].[Na+].[Na+] [Selenium, sodium selenate] | no relative effect |  | anti-proliferative activity | anti-proliferative activity |  |  |
| CCCCC/C=C\C/C=C\C/C=C\CC(I)C1CCCC(=O)O1 (stereo not drawn) [iodo-arachidonate, 6-iodo-5-hydroxy-eicosatrienoic acid-delta-lactone] |  |  |  | significant inhibitory effect |  |  |

From US8663679B2, “Compositions for improving breast health in women” (Abbott Laboratories, priority 2004, dated 2014)
